{"source": "patent US20250049817A1", "about": "“JAK INHIBITOR WITH A VITAMIN D ANALOG FOR TREATMENT OF SKIN DISEASES” (INCYTE CORPORATION, priority 2020, published 2025)", "origin": "cited, not measured here", "key": {"keratinocyte cell line": {"system": "keratinocyte cell line", "details": "concentration-dependent; read-out: IC50 for decreasing keratinocyte cell line proliferation; cited from earlier work"}, "[1]": {"system": "T cells in psoriasis lesions", "details": "psoriasis patients, topical treatment, skin biopsies; cited from earlier work"}}}
{"smiles": "C=C1/C(=C\\C=C2/CCC[C@]3(C)[C@@H]([C@H](C)/C=C/[C@@H](O)C4CC4)CC[C@@H]23)C[C@@H](O)C[C@@H]1O", "note": "[calcipotriol]", "values": [{"measurement": "IC50", "setting": "keratinocyte cell line", "value": "0.01 to 0.1", "unit": "µM"}, {"measurement": "CD8(+) IL-17(+) T cells", "setting": "[1]", "value": "significant decrease"}, {"measurement": "frequency of IL-22(+) or IFN-γ(+) cells in psoriasis lesions", "setting": "[1]", "value": "no changes"}]}
